From US7202274B2, “Cyclic hemiacetal derivative and use thereof” (Senju Pharmaceutical Co., Ltd., priority 2002, dated 2007)
Like-named read-outs stand apart in the source and are kept apart here.

Assays:
N1E-115 cells = format: cell-based; conditions: mouse, 24 h
Description: Mouse neuroblastoma derived cell lines (N1E-115 cells) were seeded in a 96 well microplate at 10^4 per well and cultured overnight in Dulbecco's Modified Eagle's Minimum Essential Medium (100 μL, DMEM, GIBCO) containing 10% FBS at 37° C. under 5% CO2. The whole amount of the culture solution was removed, and the medium was changed to various concentrations of a test drug solution (100 μL, prepared by dissolving Compound 1 in 99.5% ethanol and adjusting final concentration of ethanol to 1% with DMEM) and the cells were cultured for 24 hr. The culture supernatant and cells were separately recovered. The cells were ultrasonicated to give soluble fractions and the lactic dehydrogenase (LDH) activity of each of them was determined with an LDH cytotoxicity detection kit (MK401, manufactured by Takara Bio Inc.), and an LDH release rate was determined by the following formula and taken as a proportion of the cells suffered from cytotoxicity. LDH release rate (%)={LDH activity of culture supernatant/(LDH activity of culture supernatant+intracellular LDH activity)}×100
LD50 was determined from the LDH release rate at each test drug concentration by LD50/ED50 probit method of SAS preclinical package (Ver. 6.12).

[1] = Aqueous humor penetration test; format: in vivo, Japanese white rabbits; conditions: rabbit
Description: The suspension of Formulation Example 4 to be mentioned later was instilled by 50 μL into the both eyes of Japanese white rabbits (body weight about 2 kg, purchased from Fukusaki Rabbit Union). At 0.25, 0.5, 1 and 3 hr after the instillation, the rabbits were sacrificed with pentobarbital and aqueous humor was recovered. Using a column switching system HPLC, the concentration of Compound 1 in the aqueous humor was measured.

With `CC(C)C[C@H](NC(=S)Nc1ccccc1)C(=O)N[C@H]1CCOC1O` (stereo partly drawn) [Compound 1, (2S)-4-methyl-2-(((phenylamino)thioxomethyl)amino)-N-((3S)-tetrahydro-2-hydroxy-3-furanyl)pentanamide] the LDH release rate (N1E-115 cells; 0.1 mM) was 9.32 ± 0.07%, the LDH release rate (N1E-115 cells; 0.5 mM) was 11.05 ± 0.72% and the LDH release rate (N1E-115 cells; 1 mM) was 14.22 ± 1.14%. It also gave an LDH release rate (N1E-115 cells; 2 mM) of 47.73 ± 1.66%, an AUC ([1]; Japanese white, aqueous humor, topical, 50 μL per eye, 0-3 hr after the instillation of the suspension of Formulation Example 4, read-out: area under drug concentration-time curve (AUC) of amount penetrated to aqueous humor) of 4.79 µM·h and a Cmax ([1]; Japanese white, aqueous humor, topical, 50 μL per eye, 50 μL instillation of the suspension of Formulation Example 4, read-out: concentration in the aqueous humor, maximum (Cmax)) of 2900 nM. For the same molecule, the “time at which concentration in the aqueous humor reached the maximum” value ([1]; 50 μL instillation of the suspension of Formulation Example 4) was 0.5 h.
Work on `CCC(C)[C@H](NC(=S)Nc1ccccc1)C(=O)N[C@H]1CCOC1O` (stereo partly drawn) [Compound 2, (2S)-3-methyl-2-(((phenylamino)thioxomethyl)amino)-N-((3S)-tetrahydro-2-hydroxy-3-furanyl)pentanamide] yielded a melting point of 51.3 to 52.9 °C.
Work on `Cc1ccccc1NC(=S)N[C@@H](CC(C)C)C(=O)N[C@H]1CCOC1O` (stereo partly drawn) [Compound 9, (2S)-4-methyl-2-((((2-methylphenyl)amino)thioxomethyl)amino)-N-((3S)-tetrahydro-2-hydroxy-3-furanyl)pentanamide] yielded a melting point of 57.9 to 58.9 °C.
`Cc1cccc(NC(=S)N[C@@H](CC(C)C)C(=O)N[C@H]2CCOC2O)c1` (stereo partly drawn) [Compound 10, (2S)-4-methyl-2-((((3-methylphenyl)amino)thioxomethyl)amino)-N-((3S)-tetrahydro-2-hydroxy-3-furanyl)pentanamide] gave a melting point of 61.4 to 61.9 °C.
